From article PMC9995496, “A screen for MeCP2-TBL1 interaction inhibitors using a luminescence-based assay” (Scientific Reports, 2023)
Structures can show the parent of a compound that is named as a salt.

Test system: PRKACA-PRKAR2A interaction (SmBiT-PRKACA / LgBiT-PRKAR2A), protein kinase A
Design: NanoLuc complementation counter-screen in cell extract, PRKACA with PRKAR2A, loss of luminescence, detects NanoLuc interference
Details: counter-screen for NanoLuc interference, 0.5 h, 20 µM, inhibitor, Inh (PKA)

Inh (PKA) [%]	Structure (SMILES)
0.4431	NCC1(CC(=O)O)CCCCC1 [UM0142295:01, Gabapentin HCl]

Same assay, conditions: counter-screen for NanoLuc interference; 0.5 h, 20 µM; inhibitor

Structure (SMILES)	Inh (PKA) [%]
O=C(/C=C\n1cnc(-c2cc(C(F)(F)F)cc(C(F)(F)F)c2)n1)N1CC(F)(F)C1 [UM0142267:01, KPT-276]	9.545
O=C1[C@@H]2[C@H]3CC[C@H](C3)[C@@H]2C(=O)N1C[C@@H]1CCCC[C@H]1CN1CCN(c2nsc3ccccc23)CC1 [UM0142271:01, Lurasidone HCl]	12.01
CCCN[C@H]1CCc2nc(N)sc2C1 [UM0142273:01, Pramipexole]	-0.01445
C[C@]12CC[C@@H]3c4ccc(O)cc4CC[C@H]3[C@@H]1CC[C@@H]2OC(=O)CCC1CCCC1 [UM0142280:01, Estradiol Cypionate]	4.433
C=CC[C@]1(O)CC[C@H]2[C@@H]3CCC4=CC(=O)CCC4=C3C=C[C@@]21C [UM0142281:01, Altrenogest]	7.202
CCCCC(=O)O[C@H]1CC[C@H]2[C@@H]3CCc4cc(O)ccc4[C@H]3CC[C@]12C [UM0142282:01, Estradiol valerate]	9.885
CC(=O)O[C@]1(C(C)=O)CC[C@H]2[C@@H]3C[C@H](C)C4=CC(=O)CC[C@]4(C)[C@H]3CC[C@@]21C [UM0142284:01, Medroxyprogesterone acetate]	6.658
CC(=O)[C@H]1CC[C@H]2[C@@H]3CC=C4C[C@@H](O)CC[C@]4(C)[C@H]3CC[C@]12C [UM0142285:01, Pregnenolone]	6.585
C[C@]12CCC3=C4CCC(=O)C=C4CC[C@H]3[C@@H]1CC[C@@]2(O)CC#N [UM0142287:01, Dienogest]	-0.135
C#C[C@]1(O)C=C[C@H]2[C@@H]3CCC4=CC(=O)CC[C@@H]4[C@H]3CC[C@@]21CC [UM0142288:01, Gestodene]	7.119
CN/C(=N\CCSCc1nc[nH]c1C)NC#N [UM0142305:01, Cimetidine]	1.548

Further lines, results first:

Inh (PKA) [%]	Structure (SMILES)
7.46	Cc1ccc(Nc2c(F)cccc2Cl)c(CC(=O)O)c1 [UM0142264:01, Lumiracoxib]
16.72	CC(C(=O)O)c1ccc2c(c1)CC(=O)c1ccccc1S2 (stereo not drawn) [UM0142265:01, Zaltoprofen]
22.3	COc1cc(-c2ncn(/C=C\C(=O)OC(C)C)n2)cc(C(F)(F)F)c1 [UM0142266:01, KPT-185]
0.7269	CCN1CCCC1CNC(=O)c1cc(S(=O)(=O)CC)c(N)cc1OC (stereo not drawn) [UM0142272:01, Amisulpride]
6.997	OCCOCCN1CCN(C2=Nc3ccccc3Sc3ccccc32)CC1 [UM0142275:01, Quetiapine Fumarate]
36.3	CCOC(=O)c1ccc(N2NC(=O)/C(=C/c3ccc([N+](=O)[O-])o3)C2=O)cc1 [UM0142276:01, PYR-41]
10.84	COc1cc2c(cc1-c1c(C)noc1C)ncc1[nH]c(=O)n([C@H](C)c3ccccn3)c12 [UM0142279:01, I-BET151 (GSK1210151A)]
49.6	CC[C@H](c1ccc(O)cc1)[C@@H](CC)c1ccc(O)cc1 [UM0142283:01, Hexestrol]
25.03	CS(=O)(=O)c1cccc(CNc2nc(Nc3ccc4c(c3)CCC(=O)N4)ncc2C(F)(F)F)c1 [UM0142290:01, PF-573228]
31.08	COc1c(C)c(C(=O)c2ccc(N)c(C(=O)O)c2)n2ccccc12 [UM0142292:01, SSR128129E]
30.87	CC(C)c1onc(-c2c(Cl)cccc2Cl)c1COc1ccc(/C=C/c2cccc(C(=O)O)c2)c(Cl)c1 [UM0142293:01, GW4064]
0.2509	COc1ccnc2[nH]cc(C(=O)C(=O)N3CCN(C(=O)c4ccccc4)C[C@H]3C)c12 [UM0142297:01, BMS-378806]
15.47	N#Cc1ccc2[nH]c(O)c(-c3ccc(CN4CCOCC4)cn3)c2c1 [UM0142298:01, AZD1080]
2.001	CC(C)(C)c1ccc(CN2CCN(C(c3ccccc3)c3ccc(Cl)cc3)CC2)cc1 (stereo not drawn) [UM0142302:01, Buclizine HCl]
3.431	Cc1ccc2c(c1)c1c(n2CCc2ccc(C)nc2)CCN(C)C1 [UM0142307:01, Latrepirdine]
